Measured values from ChEMBL document CHEMBL1129553, “Synthesis and pharmacology of highly selective carboxy and phosphono isoxazole amino acid AMPA receptor antagonists” (J Med Chem, 1996).

Tests used:
Glutamate NMDA receptor = assay: In vitro inhibition of [3H]CPP binding to NMDA receptor.; type: protein-complex assay
[1] = target: Glutamate receptor ionotropic, kainate; assay: In vitro inhibition of [3H]KAIN binding to Ionotropic glutamate receptor kainate.; type: protein-complex assay
Rattus norvegicus = organism: Rattus norvegicus; assay: Inhibitory activity against antagonism of AMPA induced responses in rat cortical slices; type: functional
[2] = target: T1, Glutamate receptor ionotropic, AMPA (Rattus norvegicus, UniProt P19490+P19491+P19492+P19493); assay: In vitro inhibition of [3H]CNQX binding to Ionotropic glutamate receptor AMPA.; type: protein-complex assay
[3] = target: T1, Glutamate receptor ionotropic, AMPA; assay: In vitro inhibition of [3H]AMPA binding to Ionotropic glutamate receptor AMPA.; type: protein-complex assay
[4] = target: T1, Glutamate receptor ionotropic, AMPA; assay: Inhibition of AMPA induced electrophysiological responses in rat cortical slices.; type: functional

IC50 (Glutamate NMDA receptor) | IC50 [1] | IC50 (Rattus norvegicus) | IC50 [2] | IC50 [3] | IC50 [4] | Ki [4] | SMILES
– | – | 320 µM | 8 µM | – | – | – | Cc1onc(OCC(=O)O)c1CC(N)C(=O)O (stereo unspecified)
> 100 µM | > 100 µM | – | > 100 µM | > 100 µM | > 1000 µM | – | NC(Cc1cc(OCC(=O)O)no1)C(=O)O (stereo unspecified)
> 100 µM | > 100 µM | – | > 100 µM | > 100 µM | > 1000 µM | – | NC(Cc1c(OCC(=O)O)noc1-c1cccs1)C(=O)O (stereo unspecified)
> 100 µM | > 100 µM | – | 12 µM | 33 µM | 150 µM | – | CC(C)(C)c1onc(OCC(=O)O)c1CC(N)C(=O)O (stereo unspecified)
> 100 µM | > 100 µM | – | > 100 µM | > 100 µM | > 1000 µM | – | NC(Cc1cc(OCP(=O)(O)O)no1)C(=O)O (stereo unspecified)
> 100 µM | > 100 µM | – | 87 µM | > 100 µM | > 1000 µM | – | CCCCc1onc(OCC(=O)O)c1CC(N)C(=O)O (stereo unspecified)
> 100 µM | > 100 µM | – | > 100 µM | > 100 µM | > 1000 µM | – | NC(Cc1c(OCC(=O)O)noc1-c1ccccc1)C(=O)O (stereo unspecified)
> 100 µM | > 100 µM | – | > 100 µM | > 100 µM | > 1000 µM | – | CC(C)(C)Cc1onc(OCC(=O)O)c1CC(N)C(=O)O (stereo unspecified)

Continued, molecule first:

SMILES | IC50 (Glutamate NMDA receptor) | IC50 [1] | IC50 (Rattus norvegicus) | IC50 [2] | IC50 [3] | IC50 [4] | Ki [4]
CC(C)(C)c1onc(OCP(=O)(O)O)c1CC(N)C(=O)O (stereo unspecified) | > 100 µM | > 100 µM | – | – | – | – | –
CCCC(CCC)c1onc(OCC(=O)O)c1CC(N)C(=O)O (stereo unspecified) | > 100 µM | > 100 µM | – | 63 µM | > 100 µM | > 1000 µM | –
CCCCc1onc(OCP(=O)(O)O)c1CC(N)C(=O)O (stereo unspecified) | > 100 µM | > 100 µM | – | 18 µM | > 100 µM | 140 µM | –
NC(Cc1c(OCP(=O)(O)O)noc1-c1ccccc1)C(=O)O (stereo unspecified) | > 100 µM | > 100 µM | – | > 100 µM | > 100 µM | > 1000 µM | –
CC(C)(C)Cc1onc(OCP(=O)(O)O)c1CC(N)C(=O)O (stereo unspecified) | > 100 µM | > 100 µM | – | 35 µM | > 100 µM | > 1000 µM | –
CCCC(CCC)c1onc(OCP(=O)(O)O)c1CC(N)C(=O)O (stereo unspecified) | – | > 100 µM | – | – | > 100 µM | 350 µM | –
NC(Cc1c(OCP(=O)(O)O)noc1-c1cccs1)C(=O)O (stereo unspecified) | > 100 µM | > 100 µM | – | > 100 µM | > 100 µM | 360 µM | –
O=C(O)[C@H]1CN(CCCP(=O)(O)O)CCN1 | 0.05 µM | – | – | – | > 100 µM | – | 1.6 µM
O=C(O)C1Cc2c(OCP(=O)(O)O)noc2CN1 (stereo unspecified) | 22 µM | > 100 µM | – | > 100 µM | > 100 µM | – | –
Cc1onc(OCP(=O)(O)O)c1CC(N)C(=O)O (stereo unspecified) | > 100 µM | > 100 µM | – | 6.9 µM | 31 µM | 60 µM | –
N#Cc1cc2c(cc1[N+](=O)[O-])=NC(=O)C(=O)N=2 | 25 µM | 1.5 µM | – | – | – | – | –
